Data as given in US7723021B2, “Methods for treating lentivirus infections” (The J. David Gladstone Institutes, priority 2003, dated 2010).
Residues, ends and D or L forms follow the SMILES beside them. *: point of attachment. Cbz = O=C(OCc1ccccc1)*

System: Vif-mediated degradation of APOBEC3G (luc-APOBEC3G)
Assay: Vif/luc-APOBEC3G HeLa cell line luciferase assay
Format: cell-based
Text: The following is one non-limiting example of a suitable assay for identifying agents that reduce Vif-induced degradation of APOBEC3G. Mammalian cells (e.g., an immortalized cell line) are stably transfected with an expression vector that includes a coding sequence for a luciferase-APOBEC3G fusion protein, such that the cells synthesize the luciferase-APOBEC3G (luc-APOBEC3G) fusion protein. A substrate for luciferase is provided in the cell medium, such that the substrate enters the cell, and is acted on by the luciferase portion of the luciferase-APOBEC3G to yield a luminescent product. The level of luciferase in the cell is detected using a luminometer, and the level of luc-APOBEC3G is expressed as relative light units. The cells are transfected with an expression vector that includes a coding sequence for Vif to yield a Vif/luc-APOBEC3G cell. Because Vif induces degradation of luc-APOBEC3G, the presence of Vif protein in the Vif/luc-APOBEC3G cell reduces the level of luc-APOBEC3G, compared to the level of luc-APOBEC3G in the absence of Vif. When the Vif/luc-APOBEC3G cell is contacted with a test agent that reduces Vif-induced APOBEC3G degradation, the level of luc-APOBEC3G increases relative to the level of luc-APOBEC3G in the Vif/luc-APOBEC3G cell in the absence of the test agent.
Several cell lines were constructed that could serve as the basis for a high-throughput assay for inhibitors of HIV-1 Vif action. The cell lines produce Vif and an APOBEC3G fusion protein composed of APOBEC3G fused to a heterologous protein that provides a detectable signal. One such cell line was constructed as follows. HeLa cells were co-transfected with both a Vif expression vector and a vector expressing APOBEC3G tagged with renilla-luciferase (luc-APOBEC3G), to generate a Vif/luc-APOBEC3G cell line. […]
The Vif/luc-APOBEC3G cell line was treated with the proteasome inhibitor MG132, an agent capable of blocking Vif-mediated degradation of APOBEC3G, and the cells were subsequently lysed. […] The level of luc-APOBEC3G was expressed as relative light units (RLU). […]

CC(C)C[C@@H](C=O)NC(=O)[C@H](CC(C)C)NC(=O)[C@H](CC(C)C)NC(=O)OCc1ccccc1 [MG132] (Cbz-Leu-Leu-Leu-aldehyde)
Vif-caused reduction in the level of luc-APOBEC3G protein (Vif/luc-APOBEC3G cells): reversed
reduction of RLU in the absence of the proteasome inhibitor relative to MG132-treated cells (Vif/luc-APOBEC3G cells): approximately 20 fold
level of luc-APOBEC3G in cell lysate (Vif/luc-APOBEC3G cells treated with MG132): 203333 RLU
